This is an account of results in patent publication US9533999B2, “Fused thiazin-3-ones as KCA3.1 inhibitors” (Boehringer Ingelheim International GmbH, priority 2012, dated 2017).

The first test deals with human KCa3.1 (Homo sapiens (Human), UniProt O15554). The experiment in a line: KCa3.1 Assay (FLIPR thallium influx). It is filed as cell-based. The note with it: HEK293 cells over-expressing human KCa3.1; Tl+ influx, FLIPR dye; 15 min compound treatment. As for the experimental part:
HEK293 cells over-expressing human KCa3.1 are used to measure the effects of compounds in inhibiting the KCa3.1 channel function. The assay is based on measuring the influx of Tl^+ through KCa3.1 using a FLIPR dye assay (FLIPR Potassium Ion Channel Assay Kit #R8154 by Molecular Devices). The day before the assay HEK293/KCa3.1 cells are seeded on a 384 well plate. On the day of the assay, media is removed and replaced with Molecular Devices Potassium Ion Channel dye then incubated for 1 hour according to manufacturer's recommendations. The cells are then treated with compounds or DMSO control for 15 min, followed by addition of thallium (final concentration=1.5 mM) and ionomycin (final concentration=1 uM). The plate is read on HAMAMATSU […] measuring fluorescence signal for 50 seconds using (Em: 565-625 nm). Data analysis: HAMAMATSU 6000 data are exported using max-min value for frame 10 and 40 and corrected by spatial uniformity correction. Percent of control (POC) is calculated as 100×(max-minFlsample−max-minFllow)/(max-minFlhi−max-minFllow). Max-min Flsample is max-min value of each sample well containing test compound. Max-min Fllow is average max-min value of wells containing reference inhibitory compound. Max-min Flhi is average max-min value of wells containing DMSO. IC50 values are determined by nonlinear curve fitting of the data from a duplicate 11-point concentration-response curve.
The IC50 is the midpoint of a concentration-inhibition curve. Read a high IC50 as a need for much substance. For the molecule `O=C1CS(=O)(=O)c2sccc2N1Cc1ccc(F)c(OC(F)(F)F)c1` [Compound I-40], the IC50 was 48 nM. In turn, `CC(C)c1nc2c(s1)S(=O)(=O)CC(=O)N2Cc1ccc(F)c(OC(F)(F)F)c1` [Compound I-34] came in with a half-inhibitory concentration (IC50) of 96 nM. For `O=C1CSc2ncsc2N1Cc1cccc(C(F)(F)F)c1` [II-2, 7-(3-trifluoromethyl-benzyl)-7H-thiazolo[4,5-b][1,4]thiazin-6-one], the IC50 amounted to 320 nM. The same measure, in the same setting: then `CC(C)c1nc2c(s1)S(=O)(=O)CC(=O)N2Cc1cccc(OC(F)(F)F)c1` [Compound I-36], with 380 nM.

Molecule `O=C1CSc2cccnc2N1Cc1ccc(Cl)c(SC(F)(F)F)c1` [II-7] gave an IC50 of 52 nM. This IC50 lies about 7.3-fold lower than the previous one. In turn, `CC(C)c1nc2c(s1)S(=O)(=O)CC(=O)N2Cc1cccc(C(F)(F)F)c1` [Compound I-35] returned an IC50 of 240 nM. Against the preceding molecule, the IC50 is about 4.6-fold higher. Still for that read-out and setting: the figure for `O=C1CSc2cccnc2N1Cc1ccc(Cl)c(S(=O)(=O)C(F)(F)F)c1` [II-8] is 47 nM; for `CC(c1cccc(C(F)(F)F)c1)N1C(=O)CS(=O)(=O)c2ccc(C(=O)N(C)C)nc21` (stereo not shown) [Compound I-19] it is 2200 nM.

In turn, `O=C1CS(=O)(=O)c2cc(Cl)cnc2N1Cc1ccc(F)c(OC(F)(F)F)c1` [Compound I-15] displayed an IC50 of 92 nM.

The molecule `CC(c1cccc(C(F)(F)F)c1)N1C(=O)CS(=O)(=O)c2cccnc21` (stereo not shown) [Compound I-2] showed an IC50 of 120 nM. Still for that read-out and setting: the figure for `Cc1nc2c(s1)N(Cc1cccc(OC(F)(F)F)c1)C(=O)CS2(=O)=O` [Compound I-29] is 2400 nM; for `COC(=O)c1ccc2c(n1)N(Cc1ccc(F)c(OC(F)(F)F)c1)C(=O)CS2(=O)=O` [Compound I-18] it is 88 nM; for `O=C1CSc2ncsc2N1Cc1cccc(OC(F)(F)F)c1` [II-13] it is 160 nM.

Regarding `Cc1nc2c(s1)N(Cc1ccc(F)c(OC(F)(F)F)c1)C(=O)CS2(=O)=O` [Compound I-27], 310 nM corresponded to half-maximal inhibition (IC50).

With `O=C1CS(=O)(=O)c2cccnc2N1Cc1ccc(F)c(OC(F)(F)F)c1` [Compound I-5], the 50% inhibitory concentration (IC50) turned out to be 49 nM. On the same count and under the same terms, then `O=C1CS(=O)(=O)c2ncsc2N1Cc1cccc(OC(F)(F)F)c1` [Compound I-31], with 2200 nM. In the case of `CC(c1cc(C(F)(F)F)nn1C)N1C(=O)CSc2cccnc21` (stereo not shown) [II-6], the IC50 was found to be 3600 nM.

In turn, `O=C1CS(=O)(=O)c2cccnc2N1CCc1ccccc1C(F)(F)F` [Compound I-6] displayed a half-inhibitory concentration (IC50) of 5000 nM. `O=C1CS(=O)(=O)c2nccnc2N1Cc1ccc(F)c(OC(F)(F)F)c1` [Compound I-23] showed a half-inhibitory concentration (IC50) of 170 nM.

Turning to `CC(c1cccc(C(F)(F)F)c1)N1C(=O)CS(=O)(=O)c2ncsc21` (stereo not shown) [Compound I-32], it took 1000 nM to reach half-maximal inhibition (IC50). This IC50 lies about 5.9-fold higher than the previous one. In turn, `C[C@@H](c1cccc(C(F)(F)F)c1)N1C(=O)CS(=O)(=O)c2nccnc21` [Compound I-22, 1,1-dioxo-4-[(S)-1-(3-trifluoromethyl-phenyl)-ethyl]-1,4-dihydro-2H-11ambda*6*-pyrazino[2,3-b][1,4]thiazin-3-one] showed a 50% inhibitory concentration (IC50) of 1100 nM. The same measure, in the same setting: the figure for `Cc1nc2c(s1)SCC(=O)N2C(C)c1cccc(C(F)(F)F)c1` (stereo not shown) [II-23] is 67 nM. `O=C1CS(=O)(=O)c2nc(C3CC3)sc2N1Cc1cccc(C(F)(F)F)c1` [Compound I-30] had an IC50 of 4300 nM. This IC50 is about 64-fold higher than that of the molecule before. Take `COC(=O)c1cc2c(s1)S(=O)(=O)CC(=O)N2Cc1cccc(C(F)(F)F)c1` [Compound I-41]: the IC50 was 190 nM. Compared with the last molecule, the IC50 is about 23-fold lower.

Turning to `CC(c1cccc(C(F)(F)F)c1)N1C(=O)CSc2ncsc21` (stereo not shown) [II-16], 170 nM corresponded to half-maximal inhibition (IC50). Still for that read-out and setting: the figure for `O=C1CS(=O)(=O)c2cccnc2N1Cc1ccc(Cl)c(S(=O)(=O)C(F)(F)F)c1` [Compound I-13] is 830 nM; for `O=C1CS(=O)(=O)c2cccnc2N1Cc1cccc(C(F)(F)F)c1` [Compound I-1] it is 290 nM; for `CC(c1cccc(C(F)(F)F)c1)N1C(=O)CSc2cccnc21` (stereo not shown) [II-4] it is 41 nM. Regarding `CC(C)c1nc2c(s1)SCC(=O)N2Cc1ccc(F)c(OC(F)(F)F)c1` [II-18], the 50% inhibitory concentration (IC50) was 250 nM.

`CC(c1cccc(C(F)(F)F)c1)N1C(=O)CS(=O)(=O)c2ncc(Br)cc21` (stereo not shown) [Compound I-21] yielded a 50% inhibitory concentration (IC50) of 240 nM. In turn, `O=C1CSc2cccnc2N1Cc1cccc(Br)c1` [II-10] had a half-inhibitory concentration (IC50) of 310 nM. Molecule `CC(C)c1nc2c(s1)SCC(=O)N2Cc1cccc(C(F)(F)F)c1` [II-19] gave a 50% inhibitory concentration (IC50) of 340 nM. In turn, `NC(=O)c1ccc2c(n1)N(Cc1ccc(Cl)c(C(F)(F)F)c1)C(=O)CS2` [II-3] registered a half-maximal inhibitory concentration (IC50) of 180 nM. Molecule `O=C1CS(=O)(=O)c2nccnc2N1Cc1cccc(C(F)(F)F)c1` [Compound I-24] showed an IC50 of 2600 nM.

Consider `Cc1nc2c(s1)S(=O)(=O)CC(=O)N2Cc1cccc(C(F)(F)F)c1` [Compound I-37], for which inhibition was half-maximal at 230 nM (IC50). Against the preceding molecule, the IC50 is about 11-fold lower. Turning to `CC(C)c1nc2c(s1)SCC(=O)N2C(C)c1cccc(C(F)(F)F)c1` (stereo not shown) [II-21], the IC50 was 400 nM. `O=C1CS(=O)(=O)c2cccnc2N1Cc1ccc(Cl)c(OC(F)(F)F)c1` [Compound I-12] yielded an IC50 of 77 nM. On the same count and under the same terms, the figure for `CC(c1cc(C(F)(F)F)ccn1)N1C(=O)CS(=O)(=O)c2cccnc21` (stereo not shown) [Compound I-8] is 1900 nM; for `O=C1CS(=O)(=O)c2cccnc2N1CCc1cccc(Cl)c1` [Compound I-16] it is 2000 nM; for `O=C1CSc2ncsc2N1Cc1ccc(F)c(OC(F)(F)F)c1` [II-17] it is 60 nM.

As to `O=C1CS(=O)(=O)c2ncsc2N1Cc1cccc(C(F)(F)F)c1` [Compound I-25, 4,4-dioxo-7-(3-trifluoromethyl-benzyl)-4,7-dihydro-5H-41ambda*6*-thiazolo[4,5-b][1,4]thiazin-6-one], the IC50 worked out at 3700 nM. On to `CC(c1cccc(C(F)(F)F)c1)N1C(=O)CS(=O)(=O)c2ccsc21` (stereo not shown) [Compound I-38], for which the IC50 was determined as 71 nM. Still for that read-out and setting: the figure for `O=C1CSc2cc(Cl)cnc2N1Cc1ccc(F)c(OC(F)(F)F)c1` [II-9] is 130 nM; for `NC(=O)c1ccc2c(n1)N(Cc1ccc(Cl)c(C(F)(F)F)c1)C(=O)CS2(=O)=O` [Compound I-20] it is 490 nM; for `O=C1CS(=O)(=O)c2cccnc2N1Cc1ccc(Cl)c(C(F)(F)F)c1` [Compound I-3] it is 180 nM. As to `Cc1nc2c(s1)SCC(=O)N2Cc1cccc(C(F)(F)F)c1` [II-22], the concentration for half-maximal inhibition (IC50) was determined as 73 nM. Compared with the last molecule, the IC50 is about 2.5-fold lower. For the molecule `COC(=O)c1cc2c(s1)S(=O)(=O)CC(=O)N2C(C)c1cccc(C(F)(F)F)c1` (stereo not shown) [Compound I-43], the half-maximal inhibitory concentration (IC50) worked out at 120 nM. Take `O=C1CSc2nc(C3CC3)sc2N1Cc1cccc(C(F)(F)F)c1` [II-14]: it took 1600 nM to reach half-maximal inhibition (IC50). Consider `O=C1CS(=O)(=O)c2ccsc2N1Cc1ccc(F)c(OC(F)(F)F)c1` [Compound I-39], for which the IC50 was found to be 39 nM. Molecule `COC(=O)c1cc2c(s1)S(=O)(=O)CC(=O)N2Cc1cccc(OC(F)(F)F)c1` [Compound I-42] had an IC50 of 150 nM. On the same count and under the same terms, the figure for `O=C1CSc2cccnc2N1Cc1cccc(OC(F)(F)F)c1` [II-1, 4-(3-trifluoromethoxy-benzyl)-4H-pyrido[3,2-b][1,4]thiazin-3-one] is 52 nM; for `CC(c1ccc(Cl)c(C(F)(F)F)c1)N1C(=O)CS(=O)(=O)c2cccnc21` (stereo not shown) [Compound I-4] it is 140 nM. As to `Cc1nc2c(s1)N(Cc1cccc(C(F)(F)F)c1)C(=O)CS2(=O)=O` [Compound I-28], 4000 nM corresponded to half-maximal inhibition (IC50).

`CC(C)c1nc2c(s1)SCC(=O)N2Cc1cccc(OC(F)(F)F)c1` [II-20] displayed an IC50 of 510 nM.

Turning to `Cc1nc2c(s1)N(Cc1cccc(OC(F)(F)F)c1)C(=O)CS2` [II-12], half-maximal inhibition (IC50) was put at 260 nM. In the case of `O=C1CS(=O)(=O)c2cc(Cl)cnc2N1Cc1ccc(Cl)c(C(F)(F)F)c1` [Compound I-10], inhibition was half-maximal at 180 nM (IC50).

With `O=C1CS(=O)(=O)c2cccnc2N1CCc1cccc(C(F)(F)F)c1` [Compound I-7], the IC50 came out at 350 nM. This IC50 is about 1.9-fold higher than that of the molecule before. For the molecule `O=C1CSc2cccnc2N1Cc1ccc(Cl)c(C(F)(F)F)c1` [II-5], 46 nM corresponded to half-maximal inhibition (IC50). `Cc1nc2c(s1)N(Cc1cccc(C(F)(F)F)c1)C(=O)CS2` [II-15] displayed an IC50 of 490 nM. Molecule `O=C1CS(=O)(=O)c2ncsc2N1Cc1ccc(F)c(OC(F)(F)F)c1` [Compound I-26] registered an IC50 of 510 nM. Molecule `O=C1CS(=O)(=O)c2scnc2N1Cc1ccc(F)c(OC(F)(F)F)c1` [Compound I-33] displayed a 50% inhibitory concentration (IC50) of 110 nM. On the same count and under the same terms, the figure for `O=C1CSc2ccc(CO)nc2N1Cc1ccc(Cl)c(C(F)(F)F)c1` [II-11] is 66 nM; for `CC(c1cccc(C(F)(F)F)c1)N1C(=O)CS(=O)(=O)c2cc(Cl)cnc21` (stereo not shown) [Compound I-9] it is 110 nM.

The test system of another test is aortas of ApoE−/− mice.
Experiment: not given
The note with it: cited from earlier work.
For `Clc1ccccc1C(c1ccccc1)(c1ccccc1)n1cccn1` [TRAM-34], the development of atherosclerosis result is on record as “significantly reduces the development of atherosclerosis”. In the case of `Clc1ccccc1C(c1ccccc1)(c1ccccc1)n1ccnc1` [clotrimazole], the development of atherosclerosis result is listed as “significantly reduces the development of atherosclerosis”.

Another test relates to C57BL/6 mice.
Experiment: not given
The note with it: MOG35-55 peptide induced; cited from earlier work.
Turning to `Clc1ccccc1C(c1ccccc1)(c1ccccc1)n1cccn1` [TRAM-34], the “inhibition in EAE model” value is listed as “inhibits”.

The subject of another test is mice.
Experiment: not given
The note with it: UUO-induced, treated mice; cited from earlier work.
On to `Clc1ccccc1C(c1ccccc1)(c1ccccc1)n1cccn1` [TRAM-34], for which the “progression of renal fibrosis” value is listed as “attenuated progression of renal fibrosis”.
